Test results taken from ChEMBL document CHEMBL1134505, “Secretase targets for Alzheimer's disease: identification and therapeutic potential” (J Med Chem, 2001).
Numbered stars: 1 amine (or outer) side, 2 acyl side, 3 side chain; on linkers, the order of the positions; unused ones are H or OH. Square brackets hold non-standard residues; d marks the D form. Peptide text beside a SMILES is read from it. * marks the point of attachment. X1 = CC(C)C[C@H](N[*:1])C(O)C[C@@H](C)C(=O)[*:2]; X2 = C[C@H](N[*:1])C(=O)C(F)(F)C(=O)[*:2]; Sta = CC(C)C[C@H](N)[C@@H](O)CC(=O)O; Nva = CCC[C@H](N)C(=O)O; Cbz = O=C(OCc1ccccc1)*; Boc = CC(C)(C)OC(=O)*

Key:
[1] = target: T1, Beta-secretase (BACE) (Homo sapiens, UniProt Q9Y5Z0+P56817); test: Inhibition of beta-secretase activity; type: protein assay
[2] = target: Gamma-secretase subunit PEN-2 (Homo sapiens, UniProt Q9NZ42); test: Inhibition of Amyloid-beta production in APP-transfected cells at level of gamma secretase; type: functional, cell-based
[3] = target: Beta-secretase 1 (Homo sapiens, UniProt P56817); test: Inhibition of human recombinant beta-secretase
[4] = target: T1, Beta-secretase (BACE); test: In vitro inhibition of beta-secretase was evaluated; type: protein assay

Gamma-secretase subunit PEN-2, sequence (Q9NZ42 whole entry): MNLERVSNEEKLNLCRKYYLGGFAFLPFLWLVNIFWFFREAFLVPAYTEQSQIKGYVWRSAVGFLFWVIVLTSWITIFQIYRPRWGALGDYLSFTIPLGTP
Beta-secretase 1, sequence (P56817 whole entry): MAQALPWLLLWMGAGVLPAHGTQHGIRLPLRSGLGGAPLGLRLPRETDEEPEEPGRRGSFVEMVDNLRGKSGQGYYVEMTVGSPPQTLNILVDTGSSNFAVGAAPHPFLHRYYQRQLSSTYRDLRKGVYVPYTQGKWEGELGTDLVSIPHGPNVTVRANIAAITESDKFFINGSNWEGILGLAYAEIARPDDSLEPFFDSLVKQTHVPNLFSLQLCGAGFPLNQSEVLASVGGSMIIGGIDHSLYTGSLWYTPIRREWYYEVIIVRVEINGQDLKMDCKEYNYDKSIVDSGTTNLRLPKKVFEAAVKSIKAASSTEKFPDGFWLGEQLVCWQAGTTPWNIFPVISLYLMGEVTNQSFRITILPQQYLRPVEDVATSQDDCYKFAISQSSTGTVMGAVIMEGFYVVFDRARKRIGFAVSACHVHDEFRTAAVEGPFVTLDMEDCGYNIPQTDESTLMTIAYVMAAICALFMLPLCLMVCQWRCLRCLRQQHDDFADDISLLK

Row | Compound | IC50 [2] [µM] | also measured
1 | CC(C)C[C@H](NC(=O)[C@H](Cc1ccccc1)C[C@@H](O)[C@H](Cc1ccccc1)NC(=O)OC(C)(C)C)C(=O)N[C@@H](Cc1ccccc1)C(N)=O |  | IC50 [1]: 0.3 µM
2 | CC(C)C[C@H](NC(=O)[C@H](CC(N)=O)NC(=O)[C@@H](NC(=O)[C@@H](N)CC(=O)O)C(C)C)C(O)C[C@@H](C)C(=O)N[C@@H](C)C(=O)N[C@@H](CCC(=O)O)C(=O)N[C@@H](Cc1ccccc1)C(=O)O (stereo partly drawn) (H-DVN[X1]AEF-OH) |  | Ki [3]: 0.01 µM
3 | CC[C@H](C)[C@H](NC(=O)[C@H](CCC(=O)O)NC(=O)[C@H](CCC(=O)O)NC(=O)[C@@H](NC(=O)[C@@H](N)CCCCN)[C@@H](C)O)C(=O)N[C@@H](CO)C(=O)N[C@@H](CCC(=O)O)C(=O)N[C@H](C(=O)N[C@@H](CC(N)=O)C(=O)N[C@@H](CC(C)C)[C@@H](O)CC(=O)N[C@H](C(=O)N[C@@H](C)C(=O)N[C@@H](CCC(=O)O)C(=O)N[C@@H](Cc1ccccc1)C(=O)O)C(C)C)C(C)C (H-KTEEISEVN[Sta]VAEF-OH) |  | IC50 [4]: 0.03 µM
4 | CC(C)C[C@H](NC(=O)[C@H](CC(N)=O)NC(=O)[C@@H](N)C(C)C)C(O)C[C@@H](C)C(=O)N[C@@H](C)C(=O)N[C@@H](CCC(=O)O)C(=O)N[C@@H](Cc1ccccc1)C(=O)O (stereo partly drawn) (H-VN[X1]AEF-OH) |  | Ki [3]: 0.068 µM
5 | CC(C)C[C@@H](C=O)NC(=O)[C@H](CC(C)C)NC(=O)[C@H](CC(C)C)NC(=O)OCc1ccccc1 [MG-132] (Cbz-Leu-Leu-Leu-aldehyde) | 200 | 

Further lines, with some results ahead:

Row | IC50 [2] [µM] | Compound | also measured
6 | 200 | CCC[C@@H](C=O)NC(=O)[C@H](CC(C)C)NC(=O)[C@H](CC(C)C)NC(C)=O (Ac-Leu-Leu-[Nva]-aldehyde) | 
7 | 13 | CC[C@H](C)[C@H](NC(=O)[C@@H](NC(=O)OC(C)(C)C)C(C)C)C(=O)N[C@@H](C)C(=O)C(F)(F)C(=O)N[C@H](C(=O)N[C@H](C(=O)OC)[C@@H](C)CC)C(C)C (Boc-VI[X2]VI-OMe) | 
8 | 200 | CCC[C@@H](C=O)NC(=O)[C@H](CC(C)C)NC(=O)OCc1ccccc1 (Cbz-Leu-[Nva]-aldehyde) | 
